Our source for the IC50 values is US20060160810A1, “2-Alkoxyphenyl substituted imidazotriazinones” (priority 2001, published 2006).

SMILES strings stand for the structures.

In the experiment the target is T1, human recombinant PDE5 (Homo sapiens, UniProt O76074).
T1 construct: made in house
Description: Phosphodiesterase [3H] cGMP-SPA enzyme assay (inhibition of PDE5 in vitro). The format is biochemical. The settings on record: human recombinant PDE5 expressed in a bacculovirus system; substance concentration at which the reaction rate is reduced by 50%; read-out: PDE V IC50. As to the method: To test the inhibiting action, the “Phosphodiesterase [^3H] cGMP-SPA enzyme assay” from Amersham Life Science was used. The test was carried out according to the manufacturer's test protocol. Use was made of human recombinant PDE5 which was expressed in a bacculovirus system. The substance concentration at which the reaction rate is reduced by 50% was measured.

Turning to `CCCc1nc(C)c2c(=O)[nH]c(-c3cc(S(=O)(=O)NCCN)ccc3OCC)nn12` [Example 4, N-(2-aminoethyl)-4-ethoxy-3-(5-methyl-4-oxo-7-propyl-3,4-dihydroimidazo[5,1-f]-1,2,4-triazin-2-yl)benzenesulphonamide], the IC50 worked out at 2.4 nM.

`CCCc1nc(C)c2c(=O)[nH]c(-c3cc(S(=O)(=O)NCCNCC)ccc3OCC)nn12` [Example 3, 4-Ethoxy-N-[2-(ethylamino)ethyl]-3-(5-methyl-4-oxo-7-propyl-3,4-dihydroimidazo[5,1-f]-1,2,4-triazin-2-yl)benzenesulphonamide]: the IC50 was determined as 19 nM.

With `CCCc1nc(C)c2c(=O)[nH]c(-c3cc(S(=O)(=O)N4CCNCC4)ccc3OCC)nn12` [Example 1, 2-[2-Ethoxy-5-(1-piperazinylsulphonyl)phenyl]-5-methyl-7-propylimidazo-[5,1-f]-1,2,4-triazin-4(3H)-one], the IC50 was 4.2 nM.

For `CCCc1nc(C)c2c(=O)[nH]c(-c3cc(S(=O)(=O)N4CC[N+]([O-])(CC)CC4)ccc3OCC)nn12` [Example 2, 2-{2-Ethoxy-5-[(4-ethyl-4-hydroxy-4λ^5-piperazin-1-yl)sulphonyl]phenyl}-5-methyl-7-propylimidazo[5,1-f]-1,2,4-triazin-4(3H)-one], the IC50 amounted to 19 nM.
